For two compounds, survival rate results are on record in patent US20160068843A1 (priority 2012, published 2016).

Molecules are shown by their SMILES. Like-named read-outs stand apart in the source and are kept apart here.

This assay deals with H5N1 virus (strain A/Vietnam/1194/04). The class given is in vivo, Balb/c mice.

For the compound `NC(=O)c1ncn([C@@H]2O[C@H](CO)[C@@H](O)[C@H]2O)n1` [Ribavirin], where the note is “mouse, in vivo”, the survival rate is listed as 0%. `CC(=O)N[C@H]1[C@H]([C@H](O)[C@H](O)CO)OC(C(=O)O)=C[C@@H]1N=C(N)N` [Zanamivir] showed a survival rate (comparison with existing flu therapeutics, started 24 hours post challenge, siRNA intranasal 100 ug per dose twice a day for two days) of 40%.
